Counter-ions that a name gives are not always drawn.
These compounds were tested against T1, Human CYP8B1 (Homo sapiens, UniProt Q9UNU6) (assay: Human Cyp8B1 Liver Microsome Assay). Details: human liver microsomes; substrate 7α-hydroxy-4-cholesten-3-one, NADPH; 30 min pre-incubation, 45 min reaction; RapidFire MS readout.
T1 construct: tissue Xenotech; host or cells: human liver microsomes
T1 sequence (Q9UNU6 1-501): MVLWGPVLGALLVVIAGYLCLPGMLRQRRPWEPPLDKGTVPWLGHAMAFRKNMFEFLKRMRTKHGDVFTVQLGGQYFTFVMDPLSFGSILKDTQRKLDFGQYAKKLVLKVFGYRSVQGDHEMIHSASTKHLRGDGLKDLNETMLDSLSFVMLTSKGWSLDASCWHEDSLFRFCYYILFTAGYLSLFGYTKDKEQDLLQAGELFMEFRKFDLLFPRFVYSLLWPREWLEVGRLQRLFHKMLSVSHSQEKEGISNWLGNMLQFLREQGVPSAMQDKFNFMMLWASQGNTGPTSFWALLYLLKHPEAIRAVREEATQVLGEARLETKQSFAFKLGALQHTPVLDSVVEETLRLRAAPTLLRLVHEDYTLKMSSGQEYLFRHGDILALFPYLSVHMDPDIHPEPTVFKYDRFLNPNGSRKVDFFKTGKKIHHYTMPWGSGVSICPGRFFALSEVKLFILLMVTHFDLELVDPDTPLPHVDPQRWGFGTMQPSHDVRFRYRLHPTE
Format: biochemical
Procedure: Human Cyp8B1 Liver Microsome Assay To a 384 well polypropylene plate (Corning 3656), 250 nl of inhibitor in 100% DMSO (1.25% final DMSO concentration) was pre-plated using an Echo liquid handler (Labcyte Inc.). Human liver microsomes (Xenotech) were diluted in of 0.1 M phosphate buffer, pH 7.4, at a concentration of 65 μg/ml and 15 μL was added to the 384 well plate. The plates were incubated at ambient room temperature for 30 minutes. After pre-incubation with inhibitor, the reaction was initiated by adding 5 μl of substrate solution (4.0 μM 7α-hydroxy-4-cholesten-3-one(Toronto Research Chemicals), 2 mM of NADPH (Sigma), 0.1 M phosphate buffer (pH 7.4). The reaction was carried out for 45 minutes at ambient room temperature and was quenched by the addition of 50 μl of acetonitrile+0.1% vol/vol formic acid (FA)+300 nM 7α-hydroxy-4-cholesten-3-one-d7 (Toronto Research Chemicals). The plates were sealed and centrifuged at 3000 rpm for 5 minutes. Plates were loaded onto the Agilent RapidFire RF300 HTMS system, wherein samples were sipped for 600 ms, and the sip sensor detection signals the diversion of sample from the loop onto a C4 solid phase extraction (SPE) cartridge, where salts are washed off for 2500 ms with a mobile phase of water with 0.1% vol/vol FA at a flow rate of 1.5 ml/min. The column path is switched, and the sample is eluted off the cartridge and flowed into the mass spectrometer for 3000 ms with a mobile phase of acetonitrile and 0.1% vol/vol FA at a flow rate of 1.25 ml/min. The aspirator tip was washed separately with water and acetonitrile between sample aspirations (each for 600 ms) to minimize carryover contamination. Mass spectrometry was carried out using a Sciex API4000 triple quadrupole mass spectrometer (Applied Biosystems, Concord, ON, Canada) equipped with electrospray ionization (ESI) operated in the positive-ion mode. The product 7α, 12α-dihydroxy-4-cholesten-3-one and internal standard 7α-hydroxy-4-cholsten-3-one-d7 were detected using multiple reaction monitoring (MRM) with Q1/Q3 transitions at m/z 417.3 to 381.3 and m/z 408.3 to 390.3, respectively, with a dwell time of 100 ms and a collision energy of 24 V for each transition. The mass spectrometer used an ESI voltage of 5000 V and a source temperature of 650° C. Extracted ion chromatograms for each transition were integrated and processed using the RapidFire Integrator software. The data for each well were normalized by monitoring product conversion with the ratio of AUCproduct/(AUCinternal standard). The data was then fitted to a four parameter logistic fit using ActivityBase Software to calculate an IC50 of the inhibitor.

First: COc1ccc2c(N3CC[C@H](C(=O)N4CCn5c(nnc5C(F)(F)F)C4)[C@H](C)C3)c([N+](=O)[O-])cnc2c1 [Example 9, ((3S,4S)-1-(7-methoxy-3-nitroquinolin-4-yl)-3-methylpiperidin-4-yl)(3-(trifluoromethyl)-5,6-dihydro-[1,2,4]triazolo[4,3-a]pyrazin-7(8H)-yl)methanone]
Second: COc1ccc2c(N3CC[C@H](C(=O)N4CCn5c(nnc5C(F)(F)F)C4)[C@H](C)C3)ccnc2c1 [Example 23, [(3S,4S)-1-(7-methoxyquinolin-4-yl)-3-methylpiperidin-4-yl][3-(trifluoromethyl)-5,6-dihydro[1,2,4]tria-zolo[4,3-a]pyrazin-7(8H)-yl]methanone]
The IC50 of the first is 1200-fold lower: 0.0002 µM for the first, 0.237 µM for the second.

`CC1CN(c2ccnc3ccc(Cl)cc23)CCC1C(=O)N1CCn2c(nnc2C(F)(F)F)C1` (stereo not drawn) [Example 10, [1-(6-chloroquinolin-4-yl)-3-methylpiperidin-4-yl][3-(trifluoromethyl)-5,6-dihydro[1,2,4]triazolo[4,3-a]pyrazin-7(8H)-yl]methanone] and `C[C@@H]1CN(c2ccnc3cc(Cl)ccc23)CC[C@@H]1C(=O)N1CCn2c(nnc2C(F)(F)F)C1` [Example 21, [(3S,4S)-1-(7-chloroquinolin-4-yl)-3-methylpiperidin-4-yl][3-(trifluoromethyl)-5,6-dihydro[1,2,4]tria-zolo[4,3-a]pyrazin-7(8H)-yl]methanone] are within 1.5-fold of each other in IC50: 0.0085 µM for the first, 0.0063 µM for the second.

First: C[C@@H]1CN(c2ccnc3cc(C(F)(F)F)ccc23)CC[C@@H]1C(=O)N1CCn2c(nnc2C(F)(F)F)C1 [Example 12, {(3S,4S)-3-methyl-1-[7-(trifluoromethyl)quinolin-4-yl]piperidin-4-yl}[3-(trifluoromethyl)-5,6-dihydro[1,2,4]triazolo[4,3-a]pyrazin-7(8H)-yl]methanone]
Second: C[C@@H]1CN(c2ccnc3cc(OC(F)(F)F)ccc23)CC[C@@H]1C(=O)N1CCn2c(nnc2C(F)(F)F)C1 [Example 29, {(3S,4S)-3-methyl-1-(7-(trifluoromethoxy)quinolin-4-yl]piperidin-4-yl}[3-(trifluoromethyl)-5,6-dihydro[1,2,4]tria-zolo[4,3-a]pyrazin-7(8H)-yl]methanone]
The IC50 of the first is 15-fold higher: 0.0052 µM for the first, 0.00034 µM for the second. The second is the more potent here.

First: Cc1cc(N2CC[C@H](C(=O)N3CCn4c(nnc4C(F)(F)F)C3)[C@H](C)C2)c2cc(Cl)ccc2n1 [Example 13, [(3S,4S)-1-(6-chloro-2-methylquinolin-4-yl)-3-methylpiperidin-4-yl][3-(trifluoromethyl)-5,6-dihydro[1,2,4]tria-zolo[4,3-a]pyrazin-7(8H)-yl]methanone]
Second: Cc1cc(N2CC[C@H](C(=O)N3CCn4c(nnc4C(F)(F)F)C3)[C@H](C)C2)c2ccc(Cl)cc2n1 [Example 19, 7-chloro-2-methyl-4-[(3S,4S)-3-methyl-4-{[3-(trifluoromethyl)-5,6-dihydro[1,2,4]tria-zolo[4,3-a]pyrazin-7(8H)-yl]carbonyl}piper-idin-1-yl]quinolinium trifluoroacetate]
The IC50 of the first is 28-fold higher: 3.04 µM for the first, 0.107 µM for the second. The second is the more potent here.

Compared with `C[C@@H]1CN(c2ccnc3ccc(F)cc23)CC[C@@H]1C(=O)N1CCn2c(nnc2C(F)(F)F)C1` [Example 14, [(3S,4S)-1-(6-fluoroquinolin-4-yl)-3-methylpiperidin-4-yl][3-(trifluoromethyl)-5,6-dihydro[1,2,4]tria-zolo[4,3-a]pyrazin-7(8H)-yl]methanone], `C[C@@H]1CN(c2ccnc3cc(F)ccc23)CC[C@@H]1C(=O)N1CCn2c(nnc2C(F)(F)F)C1` [Example 22, [(3S,4S)-1-(7-fluoroquinolin-4-yl)-3-methylpiperidin-4-yl][3-(trifluoromethyl)-5,6-dihydro[1,2,4]tria-zolo[4,3-a]pyrazin-7(8H)-yl]methanone] is 2.7-fold lower in IC50: 0.052 µM for the first, 0.019 µM for the second. The second is the more potent here.

First: Cc1cc(N2CC[C@H](C(=O)N3CCn4c(nnc4C(F)(F)F)C3)[C@H](C)C2)c2cc(F)ccc2n1 [Example 15, [(3S,4S)-1-(6-fluoro-2-methylquinolin-4-yl)-3-methylpiperidin-4-yl][3-(trifluoromethyl)-5,6-dihydro[1,2,4]tria-zolo[4,3-a]pyrazin-7(8H)-yl]methanone]
Second: Cc1nc2ccc(F)cc2c(N2CC[C@H](C(=O)N3CCn4c(nnc4C(F)(F)F)C3)[C@H](C)C2)c1C [Example 16, [(3S,4S)-1-(6-fluoro-2,3-dimethylquinolin-4-yl)-3-methylpiperidin-4-yl][3-(trifluoromethyl)-5,6-dihydro[1,2,4]tria-zolo[4,3-a]pyrazin-7(8H)-yl]methanone]
The IC50 of the first is 6.6-fold higher: 0.245 µM for the first, 0.037 µM for the second.

First: Cc1cc(N2CC[C@H](C(=O)N3CCn4c(nnc4C(F)(F)F)C3)[C@H](C)C2)c2cc(F)cc(F)c2n1 [Example 17, [(3S,4S)-1-(6,8-difluoro-2-methylquinolin-4-yl)-3-methylpiperidin-4-yl][3-(trifluoromethyl)-5,6-dihydro[1,2,4]tria-zolo[4,3-a]pyrazin-7(8H)-yl]methanone]
Second: Cc1cc(N2CC[C@H](C(=O)N3CCn4c(nnc4C(F)(F)F)C3)[C@H](C)C2)c2ccc(F)c(F)c2n1 [Example 18, 7,8-difluoro-2-methyl-4-[(3S,4S)-3-methyl-4-{[3-(trifluoromethyl)-5,6-dihydro[1,2,4]tria-zolo[4,3-a]pyrazin-7(8H)-yl]carbonyl}piper-idin-1-yl]quinolinium trifluoroacetate]
The IC50 of the first is 2.7-fold lower: 0.145 µM for the first, 0.385 µM for the second. The first is the more potent here.

Compared with `C[C@@H]1CN(c2ccnc3c(F)c(Cl)ccc23)CC[C@@H]1C(=O)N1CCn2c(nnc2C(F)(F)F)C1` [Example 20, 7-chloro-8-fluoro-4-[(3S,4S)-3-methyl-4-{[3-(trifluoromethyl)-5,6-dihydro[1,2,4]tria-zolo[4,3-a]pyrazin-7(8H)-yl]carbonyl}piper-idin-1-yl]quinolinium trifluoroacetate], `Cc1ccc2c(N3CC[C@H](C(=O)N4CCn5c(nnc5C(F)(F)F)C4)[C@H](C)C3)ccnc2n1` [Example 27, [(3S,4S)-3-methyl-1-(7-methyl-1,8-naphthyridin-4-yl)piperidin-4-yl][3-(trifluoromethyl)-5,6-dihydro[1,2,4]tria-zolo[4,3-a]pyrazin-7(8H)-yl]methanone] is 480-fold higher in IC50: 0.014 µM for the first, 6.7 µM for the second. The first is the more potent here.

Compared with `C[C@@H]1CN(c2ccnc3cc(C#N)ccc23)CC[C@@H]1C(=O)N1CCn2c(nnc2C(F)(F)F)C1` [Example 24, 4-[(3S,4S)-3-methyl-4-{[3-(trifluoromethyl)-5,6-dihydro[1,2,4]tria-zolo[4,3-a]pyrazin-7(8H)-yl]carbonyl}piper-idin-1-yl]quinoline-7-carbonitrile], `C[C@@H]1CN(c2ccnc3cc(C4CC4)ccc23)CC[C@@H]1C(=O)N1CCn2c(nnc2C(F)(F)F)C1` [Example 28, 7-cyclopropyl-4-[(3S,4S)-3-methyl-4-{[3-(trifluoromethyl)-5,6-dihydro[1,2,4]tria-zolo[4,3-a]pyrazin-7(8H)-yl]carbonyl}piper-idin-1-yl]quinolinium chloride] is 13-fold lower in IC50: 0.0084 µM for the first, 0.00066 µM for the second. The second is the more potent here.

First: COc1cnc2c(N3CC[C@H](C(=O)N4CCn5c(nnc5C(F)(F)F)C4)[C@H](C)C3)ccnc2c1 [Example 25, [(3S,4S)-1-(7-methoxy-1,5-naphthyridin-4-yl)-3-methylpiperidin-4-yl][3-(trifluoromethyl)-5,6-dihydro[1,2,4]tria-zolo[4,3-a]pyrazin-7(8H)-yl]methanone]
Second: COc1ccc2nccc(N3CC[C@H](C(=O)N4CCn5c(nnc5C(F)(F)F)C4)[C@H](C)C3)c2n1 [Example 26, [(3S,4S)-1-(6-methoxy-1,5-naphthyridin-4-yl)-3-methylpiperidin-4-yl][3-(trifluoromethyl)-5,6-dihydro[1,2,4]tria-zolo[4,3-a]pyrazin-7(8H)-yl]methanone]
The IC50 of the first is 17-fold higher: 0.307 µM for the first, 0.018 µM for the second.

`C[C@@H]1CN(c2ccnc3cc(OCc4ccccc4)ccc23)CC[C@@H]1C(=O)N1CCn2c(nnc2C(F)(F)F)C1` [Example 30] gave an IC50 of 0.00391 µM.
